Reference: patent US20190239509A1, “METHOD OF CONTROLLING PLANTS” (SYNGENTA PARTICIPATIONS AG, priority 2016, published 2019)

Legend:
Assay type in all cases: in vivo
[1] = tested on: Amaranthus retroflexus (AMARE); experiment: B3 drilled field trial Brazil, post-emergence, AMARE; conditions: 28 days after application, 100=total damage, 0=no damage
Description: (§1) Seeds of a variety of test species were used in drilled field trials to look at the control of important weed species present in corn crops as well as the effect on soybean (a volunteer crop in corn). Trials were carried out in Brazil in the summer season and the second season.
(§2) Plot size was 10-15 m^2, and two replicates were carried out per treatment. Plants were treated post-emergence between the 2 and 4 leaf stage. Species tested were Amaranthus retroflexus (AMARE), Ipomoea grandifolia (IAQGR), Digitaria horizontalis (DIGHO), Bidens pilosa (BIDPI), Eleusine indica (ELEIN), Brachiaria decumbens (BRADC), Centrus echinatus (CCHEC), Euphorbia heterophylla (EPPHL), Brachiaria plantaginea (BRAPL) and Glycine max (GLXMA; soybean). Fungicides and insecticides were used as necessary for plant health. The test was evaluated at 28 days after application with 100=total damage to plant and 0=no damage to plant.
(§3) Expected results were calculated using the Colby Formula.

[2] = tested on: Bidens pilosa (BIDPI); experiment: B2 drilled field trial Brazil, post-emergence, BIDPI; conditions: 100=total damage, 0=no damage; for BIDPI 7DAA Observed: 7 days after application; for BIDPI 30 DAA Observed: 30 days after application
Description: (§4) Seeds of a variety of test species were used in drilled field trials to look at the control of important weed species present in corn crops as well as the effect on soybean (a volunteer crop in corn). Trials were carried out in Brazil in the summer season.
(§5) Plot size was 10-12 m^2, and two replicates were carried out per treatment. Plants were treated post-emergence at the 4 leaf stage. Fungicides and insecticides were used as necessary for plant health. The test was evaluated at 7 and 30 days after application (Amaranthus viridis (AMAVI), Bidens pilosa (BIDPI), Euphorbia heterophylla (EPPHL)) and 9 and 37 days after application (Brachiaria plantaginea (BRAPL) and soybean (Glycine max GLXMA) with 100=total damage to plant and 0=no damage to plant.
as §3

[3] = tested on: Brachiaria plantaginea (BRAPL); experiment: B2 drilled field trial Brazil, post-emergence, BRAPL; conditions: 100=total damage, 0=no damage; for BRAPL 9DAA Observed: 9 days after application; for BRAPL 37 DAA Observed: 37 days after application
Description: as §4, §5, §3

[4] = tested on: Euphorbia heterophylla (EPPHL); experiment: B2 drilled field trial Brazil, post-emergence, EPPHL; conditions: 100=total damage, 0=no damage; for EPPHL 7DAA Observed: 7 days after application; for EPPHL 30 DAA Observed: 30 days after application
Description: as §4, §5, §3

[5] = tested on: Brachiaria plantaginea (BRAPL); experiment: B3 drilled field trial Brazil, post-emergence, BRAPL; conditions: Summer season, 28 days after application
Description: as §1, §2, §3

[6] = tested on: Digitaria horizontalis (DIGHO); experiment: B3 drilled field trial Brazil, post-emergence, DIGHO; conditions: 28 days after application
Description: as §1, §2, §3

[7] = tested on: Bidens pilosa (BIDPI); experiment: B3 drilled field trial Brazil, post-emergence, BIDPI; conditions: 28 days after application
Description: as §1, §2, §3

[8] = tested on: Glycine max (GLXMA; soybean); experiment: B3 drilled field trial Brazil, post-emergence, soybean; conditions: 28 days after application
Description: as §1, §2, §3

[9] = tested on: soybean (Glycine max GLXMA); experiment: B2 drilled field trial Brazil, post-emergence, soybean; conditions: 100=total damage, 0=no damage; for GLXMA 9DAA Observed: 9 days after application; for GLXMA 37 DAA Observed: 37 days after application
Description: as §4, §5, §3

[10] = tested on: Euphorbia heterophylla (EPPHL); experiment: B3 drilled field trial Brazil, post-emergence, EPPHL; conditions: Summer season, 28 days after application
Description: as §1, §2, §3

[11] = tested on: Amaranthus viridis (AMAVI); experiment: B2 drilled field trial Brazil, post-emergence, AMAVI; conditions: 100=total damage, 0=no damage; for AMAVI 7DAA Observed: 7 days after application; for AMAVI 30 DAA Observed: 30 days after application
Description: as §4, §5, §3

[12] = tested on: Ipomoea grandifolia (IAQGR); experiment: B3 drilled field trial Brazil, post-emergence, IAQGR; conditions: 28 days after application
Description: as §1, §2, §3

[13] = tested on: Eleusine indica (ELEIN); experiment: B3 drilled field trial Brazil, post-emergence, ELEIN; conditions: 28 days after application
Description: as §1, §2, §3

[14] = tested on: Centrus echinatus (CCHEC); experiment: B3 drilled field trial Brazil, post-emergence, CCHEC; conditions: 28 days after application
Description: as §1, §2, §3

[15] = tested on: Brachiaria decumbens (BRADC); experiment: B3 drilled field trial Brazil, post-emergence, BRADC; conditions: 28 days after application
Description: as §1, §2, §3

CS(=O)(=O)c1ccc(C(=O)C2C(=O)CCCC2=O)c([N+](=O)[O-])c1 [Mesotrione, reference compound] was tested, and the “AMARE Second season Observed” value ([1]; 75 g ai/ha) was 40, the “AMARE Summer season Observed” value ([1]; 75 g ai/ha) was 73 and the “AMARE Second season Observed” value ([1]; 125 g ai/ha) was 54. For the same compound, the “AMARE Summer season Observed” value ([1]; 125 g ai/ha) was 85, the “BIDPI 7DAA Observed” value ([2]; 75 g ai/ha) was 28 and the “BIDPI 30 DAA Observed” value ([2]; 75 g ai/ha) was 28. For the same compound, the “BIDPI 7DAA Observed” value ([2]; 125 g ai/ha) was 40, the “BIDPI 30 DAA Observed” value ([2]; 125 g ai/ha) was 40 and the “BRAPL 9DAA Observed” value ([3]; 75 g ai/ha) was 53. For the same compound, the “BRAPL 37 DAA Observed” value ([3]; 75 g ai/ha) was 7, the “BRAPL 9DAA Observed” value ([3]; 125 g ai/ha) was 65 and the “BRAPL 37 DAA Observed” value ([3]; 125 g ai/ha) was 0. The “EPPHL 7DAA Observed” value ([4]; 75 g ai/ha) was 30, the “EPPHL 30 DAA Observed” value ([4]; 75 g ai/ha) was 20 and the “EPPHL 7DAA Observed” value ([4]; 125 g ai/ha) was 40. For the same compound, the “EPPHL 30 DAA Observed” value ([4]; 125 g ai/ha) was 35, the “Observed damage (100=total damage to plant, 0=no damage)” value ([5]; 75 g ai/ha) was 15 and the “Observed damage (100=total damage to plant, 0=no damage)” value ([5]; 125 g ai/ha) was 28. For the same compound, the “Observed damage (100=total damage to plant, 0=no damage)” value ([6]; Second season, 75 g ai/ha) was 40, the “Observed damage (100=total damage to plant, 0=no damage)” value ([6]; Second season, 125 g ai/ha) was 70 and the “Observed damage (100=total damage to plant, 0=no damage)” value ([6]; Summer season, 75 g ai/ha) was 50. The “Observed damage (100=total damage to plant, 0=no damage)” value ([6]; Summer season, 125 g ai/ha) was 72, the “Observed damage (100=total damage to plant, 0=no damage)” value ([7]; Second season, 75 g ai/ha) was 68 and the “Observed damage (100=total damage to plant, 0=no damage)” value ([7]; Second season, 125 g ai/ha) was 70. For the same compound, the “Observed damage (100=total damage to plant, 0=no damage)” value ([7]; Summer season, 75 g ai/ha) was 53, the “Observed damage (100=total damage to plant, 0=no damage)” value ([7]; Summer season, 125 g ai/ha) was 74 and the “Observed damage (100=total damage to plant, 0=no damage)” value ([8]; Second season, 75 g ai/ha) was 83. The “Observed damage (100=total damage to plant, 0=no damage)” value ([8]; Second season, 125 g ai/ha) was 89, the “Observed damage (100=total damage to plant, 0=no damage)” value ([8]; Summer season, 75 g ai/ha) was 69 and the “Observed damage (100=total damage to plant, 0=no damage)” value ([8]; Summer season, 125 g ai/ha) was 92. The “GLXMA 9DAA Observed” value ([9]; 75 g ai/ha) was 45, the “GLXMA 37 DAA Observed” value ([9]; 75 g ai/ha) was 65 and the “GLXMA 9DAA Observed” value ([9]; 125 g ai/ha) was 55. For the same compound, the “GLXMA 37 DAA Observed” value ([9]; 125 g ai/ha) was 88, the “Observed damage (100=total damage to plant, 0=no damage)” value ([10]; 75 g ai/ha) was 40 and the “Observed damage (100=total damage to plant, 0=no damage)” value ([10]; 125 g ai/ha) was 58. The “AMAVI 7DAA Observed” value ([11]; 75 g ai/ha) was 25, the “AMAVI 30 DAA Observed” value ([11]; 75 g ai/ha) was 30 and the “AMAVI 7DAA Observed” value ([11]; 125 g ai/ha) was 65. For the same compound, the “AMAVI 30 DAA Observed” value ([11]; 125 g ai/ha) was 50, the “Observed damage (100=total damage to plant, 0=no damage)” value ([12]; Second season, 75 g ai/ha) was 79 and the “Observed damage (100=total damage to plant, 0=no damage)” value ([12]; Second season, 125 g ai/ha) was 87. The “Observed damage (100=total damage to plant, 0=no damage)” value ([12]; Summer season, 75 g ai/ha) was 63, the “Observed damage (100=total damage to plant, 0=no damage)” value ([12]; Summer season, 125 g ai/ha) was 96 and the “Observed damage (100=total damage to plant, 0=no damage)” value ([13]; Second season, 75 g ai/ha) was 20. The “Observed damage (100=total damage to plant, 0=no damage)” value ([13]; Second season, 125 g ai/ha) was 50, the “Observed damage (100=total damage to plant, 0=no damage)” value ([13]; Summer season, 75 g ai/ha) was 53 and the “Observed damage (100=total damage to plant, 0=no damage)” value ([13]; Summer season, 125 g ai/ha) was 58. For the same compound, the “Observed damage (100=total damage to plant, 0=no damage)” value ([14]; Second season, 75 g ai/ha) was 0, the “Observed damage (100=total damage to plant, 0=no damage)” value ([14]; Second season, 125 g ai/ha) was 0 and the “Observed damage (100=total damage to plant, 0=no damage)” value ([14]; Summer season, 75 g ai/ha) was 0. The “Observed damage (100=total damage to plant, 0=no damage)” value ([14]; Summer season, 125 g ai/ha) was 0, the “Observed damage (100=total damage to plant, 0=no damage)” value ([15]; Second season, 75 g ai/ha) was 10 and the “Observed damage (100=total damage to plant, 0=no damage)” value ([15]; Second season, 125 g ai/ha) was 13. The “Observed damage (100=total damage to plant, 0=no damage)” value ([15]; Summer season, 75 g ai/ha) was 48 and the “Observed damage (100=total damage to plant, 0=no damage)” value ([15]; Summer season, 125 g ai/ha) was 50.
